According to US12319659B2, “Selective ligand for dopamine D3 receptor, preparation method therefor, and pharmaceutical application thereof” (Shenzhen Linglan Bio-Pharmaceutical Technology Co., Ltd, priority 2017, dated 2025):

Experiments:
[1] = target: T1, dopamine D2 receptor (Homo sapiens, UniProt P14416); test: Competitive inhibition test using radioligands ([3H]-sulpiride), D2 receptor; type: binding
T1 construct: expressed in transfected cells; host or cells: Human embryonic kidney-293 cells
T1 sequence (P14416 whole entry): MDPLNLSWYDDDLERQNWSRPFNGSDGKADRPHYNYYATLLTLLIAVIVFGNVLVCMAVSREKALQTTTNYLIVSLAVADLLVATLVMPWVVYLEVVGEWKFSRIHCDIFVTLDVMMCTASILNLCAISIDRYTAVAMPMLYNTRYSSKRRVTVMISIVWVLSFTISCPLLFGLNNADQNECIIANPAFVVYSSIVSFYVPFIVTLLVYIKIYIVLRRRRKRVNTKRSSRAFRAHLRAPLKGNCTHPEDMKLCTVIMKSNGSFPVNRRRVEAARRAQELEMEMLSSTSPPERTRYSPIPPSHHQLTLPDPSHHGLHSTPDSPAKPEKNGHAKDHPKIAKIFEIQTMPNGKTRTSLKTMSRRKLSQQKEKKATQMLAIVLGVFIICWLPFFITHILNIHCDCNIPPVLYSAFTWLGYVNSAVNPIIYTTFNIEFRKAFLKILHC
Protocol: (§3) Human embryonic kidney-293 cells were cultured in fresh MEM medium containing 10% fetal bovine serum, 100 units of penicillin, and 100 μg/mL streptomycin at 37° C. under 5% CO2. Cells were transfected with DNA plasmids of dopamine D2 and D3 receptors respectively by using polyethylenimine. After transfection for 4 hours, medium was replaced with fresh MEM medium containing fetal bovine serum and the cells were further cultured for 24 hours. The cells were seeded into 24-well plates and cultured for 14-16 hours or overnight. After the medium was discarded, the cells were rinsed with pre-cooled serum-free MEM. Radioligand ([^3H]-sulpiride) and various concentrations of compounds were added into the adherent cells, and incubated in a bath at 4° C. for 150 minutes. The cells were rinsed three times with pre-cooled MEM containing 10 mM HEPES to remove unbound ligands. After the medium was completely removed, the cells were lysed with 1% sodium lauryl sulfate. The remaining radioligands were detected with a liquid scintillation counter to calculate the relative amount of bound compounds.

[2] = target: T1, dopamine D2 receptor; test: Intrinsic functional experiment, CRE luciferase reporter gene assay, D2 receptor; type: cell-based; details: 2 μM forskolin, HEK-293 cells, quinpirole positive control
Protocol: (§1) Human embryonic kidney-293 cells were transfected with complementary DNA of human dopamine D2, D3 and D4 receptors and a luciferase reporter gene transcriptionally controlled by CRE. The cells transfected with an empty vector were used as a negative control. The cells were seeded into 24-well plates, and 2 μM of forskolin and various concentrations of compounds were added. Cells added with quinpirole were used as a positive control group. After four hours' incubation, cells were lysed with cell lysis buffer for 20 minutes and then centrifuged. The supernatant was reacted with 25 μL of luciferase substrate and the expression level of luciferase was detected by using a dual luciferase reporter vector kit.

[3] = target: T2, human dopamine D4 receptor (Homo sapiens, UniProt P21917); test: Intrinsic functional experiment, CRE luciferase reporter gene assay, D4 receptor; type: cell-based; details: 2 μM forskolin, HEK-293 cells, quinpirole positive control
T2 construct: expressed in transfected cells; host or cells: Human embryonic kidney-293 cells
T2 sequence (P21917 1-419): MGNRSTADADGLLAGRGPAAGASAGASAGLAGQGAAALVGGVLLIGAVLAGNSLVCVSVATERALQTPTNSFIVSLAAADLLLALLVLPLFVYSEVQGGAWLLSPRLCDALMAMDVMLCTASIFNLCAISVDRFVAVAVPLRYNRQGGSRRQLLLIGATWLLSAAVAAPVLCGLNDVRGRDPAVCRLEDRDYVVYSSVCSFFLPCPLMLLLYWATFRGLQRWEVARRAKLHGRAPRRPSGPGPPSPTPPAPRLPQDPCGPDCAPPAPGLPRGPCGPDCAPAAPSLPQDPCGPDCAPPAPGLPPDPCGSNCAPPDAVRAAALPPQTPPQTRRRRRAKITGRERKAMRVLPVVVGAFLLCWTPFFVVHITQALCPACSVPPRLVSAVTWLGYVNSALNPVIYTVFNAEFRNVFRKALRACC
Protocol: as §1

[4] = system: 6-OHDA-induced Parkinson's disease rats; test: Rotarod assay in 6-hydroxydopamine-induced Parkinson's disease rats; type: in vivo, Sprague Dawley (SD) rats; details: intraperitoneal for 3 days, 6-hydroxydopamine rats
Protocol: Experimental Sprague Dawley (SD) rats were randomly divided into an experimental group and a control group. After repeated behavior detection confirmed that there was no rotational behavior, the experiment was performed. Experimental group: rats were anesthetized with a mixture of xylazine (15 mg/kg, i.p.) and ketamine (100 mg/kg, i.p.), and then desipramine hydrochloride (25 mg/kg, s.c.) were used to protect noradrenergic neurons. 6 μg of 6-hydroxydopamine was dissolved in 2.3 μL of 0.9% sterile saline, and injected into the cerebral substantia nigra (antero-posterior −5.4 mm, […] from the bregma which was used as a zero coordinate) at a rate of 0.5 μL/min by using cerebral stereotaxic surgery. Rats in the control group were injected with the same dose of 0.9% sterile saline. After injection, the syringe needle was left in rats for 5 minutes before the needle was slowly withdrawn. After the rats awakened, they were placed in animal facilities for behavioral model evaluation to ensure that 6-hydroxydopamine induced the formation of a model with movement disorders and emotional/motivational disorders. Because hunger is prone to occur as a result of dopamine damage of the midbrain substantia nigra, 20% of rats were given high-calorie food for 1-2 weeks. After 19 days, the D3 receptor-selective ligand was continuously injected intraperitoneally for 3 days. Rats were allowed to accommodate the rotarod on days 19-20, and a rotarod assay was performed on days 21-22.

[5] = Solubility assay in anhydrous ethanol; type: physicochemical; details: organic solvent or mixture
From the text: (§2) Solubility Assay of the D3 Receptor-Selective Ligand

[6] = Solubility assay in water; type: physicochemical
From the text: as §2

[7] = target: T3, dopamine D3 receptor (Homo sapiens, UniProt P35462)
T3 sequence (P35462 whole entry): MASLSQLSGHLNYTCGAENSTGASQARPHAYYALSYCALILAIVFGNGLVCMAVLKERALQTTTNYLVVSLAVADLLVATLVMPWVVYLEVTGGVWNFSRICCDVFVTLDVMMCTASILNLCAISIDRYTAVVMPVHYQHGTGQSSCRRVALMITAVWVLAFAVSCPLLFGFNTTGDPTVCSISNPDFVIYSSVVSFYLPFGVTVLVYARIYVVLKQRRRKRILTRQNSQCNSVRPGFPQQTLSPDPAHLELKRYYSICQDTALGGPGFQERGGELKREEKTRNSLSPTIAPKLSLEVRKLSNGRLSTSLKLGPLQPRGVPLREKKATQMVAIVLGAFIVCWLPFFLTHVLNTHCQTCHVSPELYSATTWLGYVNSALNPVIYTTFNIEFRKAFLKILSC
Protocol: as §3

[8] = target: T3, dopamine D3 receptor; test: cell-based
Protocol: as §3

[9] = target: T3, dopamine D3 receptor; test: Intrinsic functional experiment, CRE luciferase reporter gene assay, D3 receptor; type: cell-based; set-up: expressed in transfected cells; host or cells: Human embryonic kidney-293 cells; details: 2 μM forskolin, HEK-293 cells, quinpirole positive control
Protocol: as §1

In the case of O=C(NCCCCN1CCN(c2ccc(Cl)cc2)CC1)Nc1cnc2ccccc2c1 [Compound 8i, 1-(4-(4-(4-chlorophenyl)piperazin-1-yl)butyl)-3-(quinolin-3-yl)urea], the Ki ([1]; [3H]-sulpiride competition, HEK-293 cells, read-out: KiD2R) is reported as > 79600 nM, the inhibition ([1]; […], arylpiperazine-arylurea compounds at 100 nM, [3H]-sulpiride, HEK-293 cells (Table 2), read-out: D2 Receptor Displacement (%)) is reported as 10.2 ± 6.7% and the “activation of signaling pathways downstream of D2 receptors” value [2] is reported as “didn't activate”. The “activation of signaling pathways downstream of D4 receptors (printed as D3 receptors)” value [3] was “didn't activate”, the frequency of falling [4] was “reduced the frequency of falling” and the latency to fall [4] was “increased the latency to fall”. For the same molecule, the solubility ([5]; 3.3 mg/mL) was > 3300 µg/mL, the solubility ([5]; 5 mg/mL) was < 5000 µg/mL and the solubility ([5]; 10 mg/mL) was < 5000 µg/mL. The Solubility in water ([6]; 1 mg/mL) was “+ (+ indicates that the compound was completely dissolved)”, the Solubility in water ([6]; 3 mg/mL) was “− (− indicates that the compound was un-dissolved or not completely dissolved)” and the Solubility in water ([6]; 6 mg/mL) was “− (− indicates that the compound was un-dissolved or not completely dissolved)”. The Solubility in water ([6]; 12 mg/mL) was “− (− indicates that the compound was un-dissolved or not completely dissolved)”, the selectivity ratio [7] was > 10000 and the Ki [8] was 7.4 nM. For the same molecule, the “activation of signaling pathways downstream of D3 receptors” value [9] was “activated signaling pathways downstream of D3 receptors”.
